According to US20250297292A1, “ENZYMATIC REDUCTION OR REDUCTIVE AMINATION OF ARYL AND HETEROCYCLIC CARBOXYLIC ACIDS AND ALDEHYDES” (University of Delaware Newark, priority 2022, published 2025):

Columns and labels:
srCAR = assay: Time course of enzymatic reduction of PET-derived carboxylates by srCAR with co-factor regeneration; format: biochemical, Segniliparus rotundus; conditions: 5 mM substrate, 3-enzyme NADPH and ATP regeneration system, N=3
Protocol: Endpoint in vitro assays showing the conversion of 5 mM TPA to TPAL after 24 h, with and without co-factor regenerating enzymes. […] Time course analysis of the enzymatic reduction of (i) 5 mM TPA, (ii) 5 mM 4FBA, (iii) 5 mM mmTPA and (iv) 5 mM MHET by CAR (FIG. 10B) All experiments included a 3-enzyme NADPH and ATP regeneration system. […] Sample size is N=3 and all data are shown as the mean±standard deviation. Error bars for certain points of the bioconversion of mmTPA to mm4FBA are smaller than the height of the symbol.

cvTA = assay: Endpoint bioconversion of PET-derived aldehydes to amines by cvTA; format: biochemical, Chromobacterium violaceum; conditions: 10 mM substrate, 1.5 μM cvTA, 40 mM iPr-NH2, 24 h at 30° C., N=3
Protocol: cvTA reactions for the conversion of 4FBA and TPAL to their corresponding amine (FIG. 8A) Endpoint bioconversion of 10 mM 4FBA to pAMBA (FIG. 8B) and 10 mM TPAL to pXYL (FIG. 8C) by 1.5 μM cvTA in 100 mM HEPES pH 7.5, 400 μM PLP with 40 mM iPr-NH2 as the amine donor. […] Sample size is N=3 and all data are shown as the mean±standard deviation.

[1] = target: lipase from Candida antarctica (CALB) (Moesziomyces antarcticus, UniProt P41365); assay: De-esterification of PET-derived ester aldehydes by lipase CALB; format: biochemical; conditions: 1 mM substrate, 24 h, 30° C.
Sequence of lipase from Candida antarctica (CALB) (P41365 26-342): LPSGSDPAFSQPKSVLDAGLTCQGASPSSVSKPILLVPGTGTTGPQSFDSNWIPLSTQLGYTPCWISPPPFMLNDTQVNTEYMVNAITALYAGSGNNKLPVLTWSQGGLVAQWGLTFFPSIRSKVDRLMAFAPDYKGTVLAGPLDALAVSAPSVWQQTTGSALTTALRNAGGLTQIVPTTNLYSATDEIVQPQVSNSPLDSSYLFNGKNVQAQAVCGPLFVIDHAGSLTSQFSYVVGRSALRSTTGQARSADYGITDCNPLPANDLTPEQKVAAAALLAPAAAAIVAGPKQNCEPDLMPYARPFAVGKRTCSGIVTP

[2] = test system: CAR from Segniliparus rotundus (srCAR); assay: CAR initial rate by NADPH oxidation (srCAR on PET-derived carboxylates); format: biochemical; conditions: average activity of srCAR on TPA, triplicate average; used to normalize the heatmap
Source text: Using a sequence similarity network, CARs were sampled across distinct protein clusters to probe for activity on TPA. Of 22 cloned CARs, 17 expressed, with 9 of those CARs being unreported in literature (FIG. 9A). Anti-His6 Western blot of cell lysate from E. coli BL21 (DE3) harboring different CARs is shown by phylogeny (FIG. 9B). CARS were expressed under optimized conditions. The Western blot is comprised of two separate blots, which are delineated by the dashed lines and contain their own protein ladders. The first lane of the Western blot is a control lane consisting of lysate from E. coli BL21 (DE3) with no CAR plasmid. A band corresponding to the putative CAR from Streptomyces noursei was not detected during Western blot analysis but was confirmed in a separate experiment. The substrate specificity of CAR was evaluated on TPA, 4FBA, MHET and mmTPA, which are carboxylates related to PET depolymerization (FIG. 9C). In addition, pAMBA was tested, as it is a potential reaction intermediate in our proposed multienzyme cascade for the formation of amines. Under mild aqueous conditions, the conversion of CAR was tracked on TPA, 4FBA, MHET, mmTPA, pAMBA and the model aromatic acid, benzoic acid (FIG. 9D). Here, the oxidation of NADPH is measured as a proxy to aldehyde formation, as depletion of NADPH is linked to the consumption of substrate. […]

SMILES | over-reduction of aldehyde product to alcohol during reduction (srCAR) | endpoint bioconversion of aldehyde to amine (cvTA) | de-esterification by CALB [1] | further results
O=Cc1ccc(C(=O)O)cc1 [4FBA, 4-formylbenzoic acid] | over-reduction of aldehydes to alcohols | proceeds to completion | – | –
O=Cc1ccc(C(=O)OCCO)cc1 [MHE-4FBA, 2-hydroxyethyl 4-formylbenzoate] | – | – | completely de-esterified | –
O=C(O)c1ccc(C(=O)O)cc1 [TPA, terephthalic acid] | over-reduction of aldehydes to alcohols | – | – | average initial rate (oxidation of NADPH as proxy to aldehyde formation) [2]: 4.80 mM NADPHox·h^−1·μMCAR^−1
O=Cc1ccc(C=O)cc1 [TPAL, terephthalaldehyde] | – | proceeds to completion | – | –
COC(=O)c1ccc(C=O)cc1 [mm4FBA, methyl 4-formylbenzoate] | – | – | completely de-esterified | –
COC(=O)c1ccc(C(=O)O)cc1 [mmTPA, monomethyl terephthalate] | decline in concentration over time to the purported alcohol product | – | – | –
